Laboratory results published in ChEMBL document CHEMBL4190322, “Structure-based development of novel triazoles and related thiazolotriazoles as anticancer agents and Cdc25A/B phosphatase inhibitors. Synthesis, in vitro biological evaluation, molecular docking and in silico ADME-T studies” (Eur J Med Chem, 2017).
The source made the active and inactive calls. The calls are words filed in the database; no cut-off is given here.

How the values were obtained:
SNB-75 = experiment: Growth inhibition of human SNB75 cells at 10 uM after 48 hrs by SRB assay relative to control; format: functional; details: SNB-75, 48 h, read-out: GI
A549 = experiment: Growth inhibition of human A549 cells at 10 uM after 48 hrs by SRB assay relative to control; format: functional; details: for inhibition of growth at 10 µM: A549, 48 h, read-out: GI
LOX IMVI = experiment: Growth inhibition of human LOXIMVI cells at 10 uM after 48 hrs by SRB assay relative to control; format: functional; details: read-out: GI
OVCAR-3 = experiment: Growth inhibition of human OVCAR3 cells at 10 uM after 48 hrs by SRB assay relative to control; format: functional; details: for inhibition of growth at 10 µM: OVCAR-3, 48 h, read-out: GI
Hs-578T = experiment: Growth inhibition of human Hs 578T cells at 10 uM after 48 hrs by SRB assay relative to control; format: functional; details: for inhibition of growth at 10 µM: read-out: GI
Malme-3M = experiment: Growth inhibition of human MALME-3M cells at 10 uM after 48 hrs by SRB assay relative to control; format: functional; details: read-out: GI
UACC-62 = experiment: Growth inhibition of human UACC62 cells at 10 uM after 48 hrs by SRB assay relative to control; format: functional; details: UACC-62, 48 h, read-out: GI
PC-3 = experiment: Growth inhibition of human PC3 cells at 10 uM after 48 hrs by SRB assay relative to control; format: functional; details: PC-3, 48 h, read-out: GI
A498 = experiment: Growth inhibition of human A498 cells at 10 uM after 48 hrs by SRB assay relative to control; format: functional; details: A498, 48 h, read-out: GI
K562 = experiment: Growth inhibition of human K562 cells at 10 uM after 48 hrs by SRB assay relative to control; format: functional; details: K562, 48 h, read-out: GI
OVCAR-4 = experiment: Growth inhibition of human OVCAR4 cells at 10 uM after 48 hrs by SRB assay relative to control; format: functional; details: OVCAR-4, 48 h, read-out: GI
SK-OV-3 = experiment: Growth inhibition of human SKOV3 cells at 10 uM after 48 hrs by SRB assay relative to control; format: functional; details: SK-OV-3, 48 h, read-out: GI
SK-MEL-2 = experiment: Growth inhibition of human SK-MEL-2 cells at 10 uM after 48 hrs by SRB assay relative to control; format: functional; details: SK-MEL-2, 48 h, read-out: GI
SK-MEL-5 = experiment: Growth inhibition of human SK-MEL-5 cells at 10 uM after 48 hrs by SRB assay relative to control; format: functional; details: SK-MEL-5, 48 h, read-out: GI
NCI-H226 = experiment: Growth inhibition of human NCI-H226 cells at 10 uM after 48 hrs by SRB assay relative to control; format: functional; details: for inhibition of growth at 10 µM: NCI-H226, 48 h, read-out: GI
MOLT-4 = experiment: Growth inhibition of human MOLT4 cells at 10 uM after 48 hrs by SRB assay relative to control; format: functional; details: MOLT-4, 48 h, read-out: GI
U-251 = experiment: Growth inhibition of human U251 cells at 10 uM after 48 hrs by SRB assay relative to control; format: functional; details: U-251, 48 h, read-out: GI
RXF 393 = experiment: Growth inhibition of human RXF393 cells at 10 uM after 48 hrs by SRB assay relative to control; format: functional; details: for inhibition of growth at 10 µM: RXF 393, 48 h, read-out: GI
SNB-19 = experiment: Growth inhibition of human SNB19 cells at 10 uM after 48 hrs by SRB assay relative to control; format: functional; details: for inhibition of growth at 10 µM: SNB-19, 48 h, read-out: GI
786-0 = experiment: Growth inhibition of human 786-0 cells at 10 uM after 48 hrs by SRB assay relative to control; format: functional; details: for inhibition of growth at 10 µM: 786-0, 48 h, read-out: GI
NCI-H522 = experiment: Growth inhibition of human NCI-H522 cells at 10 uM after 48 hrs by SRB assay relative to control; format: functional; details: NCI-H522, 48 h, read-out: GI
CAKI-1 = experiment: Growth inhibition of human Caki1 cells at 10 uM after 48 hrs by SRB assay relative to control; format: functional; details: CAKI-1, 48 h, read-out: GI
HOP-92 = experiment: Growth inhibition of human HOP92 cells at 10 uM after 48 hrs by SRB assay relative to control; format: functional; details: HOP-92, 48 h, read-out: GI
HOP-62 = experiment: Growth inhibition of human HOP62 cells at 10 uM after 48 hrs by SRB assay relative to control; format: functional; details: HOP-62, 48 h, read-out: GI
NCI-H23 = experiment: Growth inhibition of human NCI-H23 cells at 10 uM after 48 hrs by SRB assay relative to control; format: functional; details: NCI-H23, 48 h, read-out: GI
SR = experiment: Growth inhibition of human SR cells at 10 uM after 48 hrs by SRB assay relative to control; format: functional; details: read-out: GI
[1] = Cytotoxicity against human MCF10A cells after 24 hrs by MTT assay; format: cell-based, MCF-10A; details: read-out: LC50
HL-60 = experiment: Growth inhibition of human HL60 cells at 10 uM after 48 hrs by SRB assay relative to control; format: functional
UO-31 = experiment: Growth inhibition of human UO31 cells at 10 uM after 48 hrs by SRB assay relative to control; format: functional; details: UO-31, 48 h, read-out: GI
RPMI-8226 = experiment: Growth inhibition of human RPMI8226 cells at 10 uM after 48 hrs by SRB assay relative to control; format: functional; details: RPMI-8226, 48 h, read-out: GI
OVCAR-8 = experiment: Growth inhibition of human OVCAR8 cells at 10 uM after 48 hrs by SRB assay relative to control; format: functional; details: for inhibition of growth at 10 µM: OVCAR-8, 48 h, read-out: GI
[2] = molecular target: T1, M-phase inducer phosphatase 2 (Homo sapiens, UniProt P30305); experiment: Inhibition of human CDC25B using OMFP as substrate after 15 mins by fluorescence assay
T1 sequence (P30305 whole entry): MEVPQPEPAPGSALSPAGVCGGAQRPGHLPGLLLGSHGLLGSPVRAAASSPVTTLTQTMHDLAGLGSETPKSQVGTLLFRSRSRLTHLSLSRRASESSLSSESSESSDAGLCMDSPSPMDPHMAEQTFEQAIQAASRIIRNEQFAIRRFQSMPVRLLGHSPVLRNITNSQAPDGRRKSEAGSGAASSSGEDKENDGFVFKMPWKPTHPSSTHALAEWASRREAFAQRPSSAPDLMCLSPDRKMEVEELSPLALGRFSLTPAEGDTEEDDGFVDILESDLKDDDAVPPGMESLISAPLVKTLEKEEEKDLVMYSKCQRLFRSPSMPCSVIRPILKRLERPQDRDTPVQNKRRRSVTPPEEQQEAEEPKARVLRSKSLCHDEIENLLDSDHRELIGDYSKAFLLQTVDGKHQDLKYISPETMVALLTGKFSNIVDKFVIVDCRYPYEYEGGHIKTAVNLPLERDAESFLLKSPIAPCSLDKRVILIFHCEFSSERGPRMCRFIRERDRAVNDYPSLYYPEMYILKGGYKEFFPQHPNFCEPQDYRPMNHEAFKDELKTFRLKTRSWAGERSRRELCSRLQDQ

Row | SMILES | inhibition of growth at 10 µM (SNB-75) [%] | inhibition of growth at 10 µM (LOX IMVI) [%] | inhibition of growth at 10 µM (Malme-3M) [%] | inhibition of growth at 10 µM (UACC-62) [%] | inhibition of growth at 10 µM (PC-3) [%] | inhibition of growth at 10 µM (A498) [%] | inhibition of growth at 10 µM (K562) [%] | inhibition of growth at 10 µM (OVCAR-4) [%] | inhibition of growth at 10 µM (SK-OV-3) [%] | inhibition of growth at 10 µM (SK-MEL-2) [%] | inhibition of growth at 10 µM (SK-MEL-5) [%] | inhibition of growth at 10 µM (MOLT-4) [%] | inhibition of growth at 10 µM (U-251) [%] | inhibition of growth at 10 µM (NCI-H522) [%] | inhibition of growth at 10 µM (CAKI-1) [%] | inhibition of growth at 10 µM (HOP-92) [%] | inhibition of growth at 10 µM (HOP-62) [%] | inhibition of growth at 10 µM (NCI-H23) [%] | inhibition of growth at 10 µM (SR) [%] | CC50 at 24 h [1] [µM] | also measured
1 | COc1ccc(Cc2nnc(SCC(=O)c3ccc(Cl)cc3)n2-c2ccccc2)cc1 | 12.8 | 3.4 | 16.9 | 13.7 | 36.2 | 24.5 | 26.7 | 22 | 7.83 | 11.5 | 7 | 24 | 10.1 | 21 | 13.5 | 24.1 | 1.26 | 8.1 | 24.1 | > 100 | inhibition of growth at 10 µM (A549): 4.57%; inhibition of growth at 10 µM (OVCAR-3): 4.64%; inhibition of growth at 10 µM (Hs-578T): 3.43%; inhibition of growth at 10 µM (NCI-H226): 4%; inhibition of growth at 10 µM (RXF 393): 2%; inhibition of growth at 10 µM (SNB-19): 5%; inhibition of growth at 10 µM (786-0): 7.77%; growth inhibition (GI) (HL-60): inactive; inhibition of growth at 10 µM (UO-31): 20.1%; inhibition of growth at 10 µM (RPMI-8226): 13.7%; growth inhibition (GI) (OVCAR-8): inactive; IC50 [2]: 20.1 µM
2 | COc1ccc(Cc2nnc(SCC(=O)Nc3ccc(Cl)cc3)n2Cc2ccccc2)cc1 | 4 | 12.2 | 5.6 | 38 | 47.3 | 16 | 34.5 | 11.8 | 16.2 | 17.2 | 4.45 | 36 | 5.5 | 29.3 | 21.4 | 29.8 | 12 | 9 | 25.7 | > 100 | inhibition of growth at 10 µM (A549): 1.05%; inhibition of growth at 10 µM (OVCAR-3): 3%; inhibition of growth at 10 µM (Hs-578T): 2.82%; inhibition of growth at 10 µM (NCI-H226): 4.45%; growth inhibition (GI) (RXF 393): inactive; inhibition of growth at 10 µM (SNB-19): 6.27%; inhibition of growth at 10 µM (786-0): 11.4%; growth inhibition (GI) (HL-60): inactive; inhibition of growth at 10 µM (UO-31): 31.7%; inhibition of growth at 10 µM (RPMI-8226): 22.5%; growth inhibition (GI) (OVCAR-8): inactive; IC50 [2]: 8.4 µM
3 | COc1ccc(Cc2nnc(SCC(=O)c3ccc(Cl)cc3)n2Cc2ccccc2)cc1 | 14.4 | 6.87 | 3 | 14.8 | 51.8 | 35.2 | 29.2 | 10 | 17 | 13 | 5.52 | 28.6 | 8.87 | 30 | 23.7 | 39.3 | 11.2 | 13.6 | 22.2 | > 100 | inhibition of growth at 10 µM (A549): 16.5%; inhibition of growth at 10 µM (OVCAR-3): 18.4%; inhibition of growth at 10 µM (Hs-578T): 20%; inhibition of growth at 10 µM (NCI-H226): 10%; inhibition of growth at 10 µM (RXF 393): 16%; inhibition of growth at 10 µM (SNB-19): 9.2%; inhibition of growth at 10 µM (786-0): 3.19%; growth inhibition (GI) (HL-60): inactive; inhibition of growth at 10 µM (UO-31): 34.7%; inhibition of growth at 10 µM (RPMI-8226): 26.4%; inhibition of growth at 10 µM (OVCAR-8): 10%; IC50 [2]: 6.7 µM
4 | COc1ccc(Cc2nnc(SCC(=O)c3ccc(Cl)cc3)n2-c2ccc(C)cc2)cc1 | 11.4 | 1.19 | 12 | 5.42 | 26 | 46 | 53.5 | 18.6 | 1.07 | 10 | 1.52 | 32.7 | 10.4 | 23 | 6.12 | 36.9 | 11.7 | 5.6 | 20 | > 100 | inhibition of growth at 10 µM (A549): 4.54%; inhibition of growth at 10 µM (OVCAR-3): 4.28%; growth inhibition (GI) (Hs-578T): inactive; inhibition of growth at 10 µM (NCI-H226): 3%; growth inhibition (GI) (RXF 393): inactive; growth inhibition (GI) (SNB-19): inactive; growth inhibition (GI) (786-0): inactive; inhibition of growth at 10 µM (HL-60; HL-60, 48 h, read-out: GI): 26.4%; inhibition of growth at 10 µM (UO-31): 14%; inhibition of growth at 10 µM (RPMI-8226): 25%; inhibition of growth at 10 µM (OVCAR-8): 1.7%; IC50 [2]: 17.3 µM
5 | COc1ccc(Cc2nnc(SCC(=O)Nc3ccc(Cl)cc3)n2-c2ccccc2)cc1 | 8.27 | 11.9 | 11.7 | 18.8 | 45.2 | 15.5 | 25 | 1.8 | 14.1 | 3.18 | 3.39 | 42.3 | 4.12 | 22.3 | 13.7 | 30 | 8.3 | 8.87 | 31.2 | > 100 | growth inhibition (GI) (A549): inactive; growth inhibition (GI) (OVCAR-3): inactive; growth inhibition (GI) (Hs-578T): inactive; growth inhibition (GI) (NCI-H226): inactive; inhibition of growth at 10 µM (RXF 393): 3.85%; inhibition of growth at 10 µM (SNB-19): 3%; growth inhibition (GI) (786-0): inactive; growth inhibition (GI) (HL-60): inactive; inhibition of growth at 10 µM (UO-31): 27.2%; inhibition of growth at 10 µM (RPMI-8226): 20.6%; growth inhibition (GI) (OVCAR-8): inactive; IC50 [2]: 22.5 µM
